According to PubChem BioAssay (NCI):
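In this assay, cells in 96-well plates receive the compound at five concentrations for 48 hours. Endpoints are linearly interpolated between the surrounding concentrations. TGI denotes the concentration required for complete inhibition of growth.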 Where a SMILES comes first, the peptide text is derived from it. [ ]: non-standard residue; d: D form. The star is where a group is joined. Phe(4-NO2) = N[CH](Cc1ccc([N+](=O)[O-])cc1)C(=O)O; Cbz = O=C(OCc1ccccc1)*

What was measured:
Assay in all cases: NCI-60 cell line screen, 48 h
MDA-N = tested on: MDA-N
OVCAR-5 ovarian = tested on: OVCAR-5 ovarian
DMS 273 small cell lung = tested on: DMS 273 small cell lung
DMS 114 small cell lung = tested on: DMS 114 small cell lung
KM20L2 colon = tested on: KM20L2 colon
DLD-1 colon = tested on: DLD-1 colon
XF 498 CNS = tested on: XF 498 CNS
SNB-78 CNS = tested on: SNB-78 CNS
LXFL 529 NSCLC = tested on: LXFL 529 NSCLC
HOP-18 NSCLC = tested on: HOP-18 NSCLC
M19-MEL melanoma = tested on: M19-MEL melanoma
RXF-631 renal = tested on: RXF-631 renal

Compound: O=C(NO)c1ccc(OCc2cccc(Cl)c2)cc1
- TGI (MDA-N): 35.4 µM
- TGI (OVCAR-5 ovarian): > 40.8 µM

Compound: CCOC(=O)C[C@@H](C)[C@]1(C(=O)OC)CCCC1=O
- TGI (DMS 273 small cell lung): > 100 µM
- TGI (DMS 114 small cell lung): > 58.9 µM
- TGI (KM20L2 colon): > 100 µM
- TGI (DLD-1 colon): > 71.3 µM
- TGI (XF 498 CNS): > 100 µM
- TGI (OVCAR-5 ovarian): > 100 µM
- TGI (SNB-78 CNS): > 100 µM
- TGI (LXFL 529 NSCLC): > 100 µM
- TGI (HOP-18 NSCLC): > 100 µM
- TGI (M19-MEL melanoma): > 100 µM

Compound: O=C1C=CC(=O)c2c1cc([N+](=O)[O-])c1ccoc21
- TGI (MDA-N): 35.4 µM
- TGI (OVCAR-5 ovarian): 35.4 µM

Compound: O=C(CSc1nnc(Cc2ccccc2)o1)Nc1cccc(Cl)c1
- TGI (DMS 273 small cell lung): > 100 µM
- TGI (KM20L2 colon): > 100 µM
- TGI (DLD-1 colon): > 100 µM
- TGI (OVCAR-5 ovarian): > 100 µM
- TGI (SNB-78 CNS): > 100 µM
- TGI (LXFL 529 NSCLC): > 100 µM
- TGI (HOP-18 NSCLC): > 100 µM
- TGI (M19-MEL melanoma): > 100 µM

Compound: COc1ccc2c(c1)CCN=C2Cc1ccccc1CCCl
- TGI (OVCAR-5 ovarian): > 100 µM

Compound: O=C1Oc2ccccc2C(=O)/C1=C/N1C(=O)/C(=C/c2ccc3c(c2)OCO3)SC1=S
- TGI (MDA-N): 77.7 µM
- TGI (OVCAR-5 ovarian): 30.2 µM

Compound: N#CC1(C#N)NC(c2cccnc2)C(C#N)(C#N)NC1c1cccnc1 (configuration not stated)
- TGI (MDA-N): > 100 µM
- TGI (OVCAR-5 ovarian): > 100 µM

Compound: CC(=O)NC(CCCCN(Cc1ccccc1)C(=O)NCCCl)C(=O)NCc1ccccc1 (configuration not stated)
- TGI (DMS 273 small cell lung): > 100 µM
- TGI (DMS 114 small cell lung): > 100 µM
- TGI (KM20L2 colon): > 100 µM
- TGI (DLD-1 colon): > 100 µM
- TGI (RXF-631 renal): > 100 µM
- TGI (LXFL 529 NSCLC): > 100 µM
- TGI (HOP-18 NSCLC): > 100 µM

Compound: CC1(C)O[C@H]([C@H](O)c2nnc3ccc(Cl)nn23)[C@@H]([C@H]2COC(C)(C)O2)O1
- TGI (MDA-N): > 100 µM
- TGI (OVCAR-5 ovarian): > 100 µM

Compound: Cc1[nH]n(C2=NCCN2)c(=O)c1C
- TGI (OVCAR-5 ovarian): > 100 µM

Compound: O=c1[nH]c(=O)n(C2OC(CO)C(O)C2O)c2ncc(-c3ccc(-c4ccccc4)cc3)nc12 (configuration not stated)
- TGI (MDA-N): > 20 µM
- TGI (OVCAR-5 ovarian): > 20 µM

Compound: CCOC(=O)CC(=O)C(=O)NNC1=NCCN1
- TGI (MDA-N): > 100 µM
- TGI (OVCAR-5 ovarian): > 100 µM

Compound: c1ccc(CSc2ccccc2CN2CCN(Cc3ccccc3SCc3ccccc3)CCN(Cc3ccccc3SCc3ccccc3)CC2)cc1
- TGI (MDA-N): 3.02 µM
- TGI (OVCAR-5 ovarian): 6.04 µM

Compound: CCOC(=O)C(NC(=O)C(CCCCNP(=O)(OCC)OCC)NC(=O)C(C)NC(C)=O)C(C)C (configuration not stated)
- TGI (MDA-N): > 100 µM
- TGI (OVCAR-5 ovarian): > 100 µM

Compound: CCOC(=O)/C(C=Nc1c(C)n(C)n(-c2ccccc2)c1=O)=C(/O)c1ccccc1
- TGI (MDA-N): > 100 µM
- TGI (OVCAR-5 ovarian): > 100 µM

Compound: O=C(Nc1cccc(NC(=O)C(=O)C2CCC3=C(Sc4ccccc4N3)C2=O)n1)C(=O)C1CCC2=C(Sc3ccccc3N2)C1=O (configuration not stated)
- TGI (MDA-N): > 100 µM
- TGI (OVCAR-5 ovarian): > 100 µM

Compound: CCOC(=O)[C@@H]1OC(c2ccccc2)O[C@H]1C(=O)OCC
- TGI (MDA-N): > 100 µM
- TGI (OVCAR-5 ovarian): > 100 µM

Compound: Cn1c2c(c3ccccc31)CCN1OCC=C[C@@H](C(=O)O)[C@@H]21
- TGI (MDA-N): > 100 µM
- TGI (OVCAR-5 ovarian): > 100 µM

Compound: O=C(/C=C/c1ccc(O)c(O)c1)OC1C[C@@](O)(C(=O)O)C[C@@H](O)[C@H]1OC(=O)/C=C/c1ccc(O)c(O)c1 (some centres not stated)
- TGI (DMS 273 small cell lung): > 100 µM
- TGI (DMS 114 small cell lung): > 100 µM
- TGI (KM20L2 colon): > 100 µM
- TGI (DLD-1 colon): > 100 µM
- TGI (XF 498 CNS): > 100 µM
- TGI (OVCAR-5 ovarian): > 100 µM
- TGI (SNB-78 CNS): > 100 µM
- TGI (LXFL 529 NSCLC): > 100 µM
- TGI (HOP-18 NSCLC): > 100 µM
- TGI (M19-MEL melanoma): > 100 µM

Compound: CC(C)(C)OC(=O)[C@@H]1CCC(=S)N1Cc1ccccc1
- TGI (MDA-N): > 100 µM
- TGI (OVCAR-5 ovarian): > 100 µM

Compound: Cc1ccc(-c2cc(-c3ccc(Cl)cc3)nc(/N=C3\C(=O)N(CN4CCOCC4)c4ccccc43)n2)cc1
- TGI (MDA-N): 37.6 µM
- TGI (OVCAR-5 ovarian): 67.9 µM

Compound: CCN1C(=S)n2cccc2C1CC(=O)c1ccc(Cl)cc1 (configuration not stated)
- TGI (MDA-N): > 100 µM
- TGI (OVCAR-5 ovarian): > 100 µM

Compound: CCN(CC)C(=S)SNc1ccc(S(N)(=O)=O)cc1
- TGI (MDA-N): > 100 µM
- TGI (OVCAR-5 ovarian): > 72.3 µM

Compound: Cc1c(-c2ccccc2)[nH]c2ccc(Cl)cc2c1=O
- TGI (MDA-N): 54.6 µM
- TGI (OVCAR-5 ovarian): > 100 µM

Compound: CN(C)C(=S)N1C(=S)N(c2ccccc2)C(=Nc2ccccc2)C1=Nc1ccccc1
- TGI (MDA-N): > 100 µM
- TGI (OVCAR-5 ovarian): > 100 µM

Compound: Cc1cc2nc3c(C#N)c(-c4ccccc4)/c(=C\Nc4ccc(Cl)cc4)c(=O)n3c2cc1C
- TGI (MDA-N): > 100 µM
- TGI (OVCAR-5 ovarian): > 100 µM

Compound: COc1ccc(N=Nc2c(C)c(C#N)c(=S)n(C3OC(COC(C)=O)C(OC(C)=O)C(OC(C)=O)C3OC(C)=O)c2C)cc1 (configuration not stated)
- TGI (MDA-N): > 100 µM
- TGI (OVCAR-5 ovarian): > 100 µM

Compound: CCSC1=N/C(=C\c2ccco2)C(NN)=N1
- TGI (MDA-N): > 50 µM
- TGI (OVCAR-5 ovarian): > 50 µM

Compound: N#CC(/C(=N\NC(=O)c1ccncc1)C(=O)Nc1ccc([N+](=O)[O-])cc1[N+](=O)[O-])c1nc(-c2ccc(Br)cc2)cs1 (configuration not stated)
- TGI (DMS 114 small cell lung): > 100 µM
- TGI (KM20L2 colon): > 100 µM
- TGI (DLD-1 colon): > 100 µM
- TGI (RXF-631 renal): > 100 µM
- TGI (OVCAR-5 ovarian): > 100 µM
- TGI (SNB-78 CNS): > 100 µM
- TGI (LXFL 529 NSCLC): > 100 µM
- TGI (M19-MEL melanoma): > 100 µM

Compound: O=C(Nc1ccc(Cl)cc1)NS(=O)(=O)c1coc2ccccc2c1=O
- TGI (MDA-N): > 10 µM
- TGI (OVCAR-5 ovarian): > 10 µM

Compound: CCOC(=O)CCC(NC(=O)OCc1ccccc1)C(=O)NC(CCC(=O)OCC)C(=O)NC(Cc1ccc([N+](=O)[O-])cc1)C(=O)NC(CCC(=O)OCC)C(=O)NC(CCC(=O)OCC)C(=O)OCC (configuration not stated) (Cbz-E(OEt)E(OEt)[Phe(4-NO2)]E(OEt)E(OEt)-OEt; configuration not given here)
- TGI (MDA-N): > 100 µM
- TGI (OVCAR-5 ovarian): > 100 µM

Compound: C=CCOc1ccc(/C(N=Nc2ccc(C)cc2)=N/NC(=O)c2ccccc2)cc1OC
- TGI (MDA-N): 57.6 µM
- TGI (OVCAR-5 ovarian): > 100 µM

Compound: Cc1ccccc1N=CN(C)C
- TGI (MDA-N): > 100 µM
- TGI (OVCAR-5 ovarian): > 100 µM

Compound: C/C(=C/c1ccccc1)CN(C(=O)/C=C\Sc1ccccc1)C(C)(C)C
- TGI (MDA-N): > 100 µM
- TGI (OVCAR-5 ovarian): > 100 µM

Compound: CCCCCN1CCN(c2ncccn2)CC1
- TGI (MDA-N): > 100 µM
- TGI (OVCAR-5 ovarian): > 100 µM

Compound: COc1c(C)c2c(c3c1c(=O)c1ccccc1n3C)C=CC(C)(C)O2
- TGI (DMS 273 small cell lung): 38 µM
- TGI (DMS 114 small cell lung): 43 µM
- TGI (KM20L2 colon): > 100 µM
- TGI (DLD-1 colon): > 100 µM
- TGI (XF 498 CNS): 55.7 µM
- TGI (OVCAR-5 ovarian): 87.6 µM
- TGI (SNB-78 CNS): 72.9 µM
- TGI (LXFL 529 NSCLC): 94.4 µM
- TGI (HOP-18 NSCLC): 97.8 µM
- TGI (M19-MEL melanoma): 82.4 µM

Compound: Cc1cc(N)ccc1N=Nc1ccc(S(=O)(=O)CCOS(=O)(=O)O)cc1
- TGI (MDA-N): 0.755 µM
- TGI (OVCAR-5 ovarian): 26.4 µM

Compound: COc1ccc2oc(=Nc3ccccc3)c(C(N)=O)cc2c1
- TGI (MDA-N): > 100 µM
- TGI (OVCAR-5 ovarian): > 100 µM

Compound: C=C(C)CNC(=S)N(N)c1ccc(OC)cc1
- TGI (MDA-N): > 100 µM
- TGI (OVCAR-5 ovarian): > 100 µM
